# Reference: patent US11731944B2, “SARS-CoV-2 inhibitors for treating coronavirus infections” (priority 2021, dated 2023)
# Target: SARS-CoV-2 MPRO (Severe acute respiratory syndrome coronavirus 2 (2019-nCoV) (SARS-CoV-2), UniProt P0DTD1)
# Assay: SARS-CoV-2 Mpro enzymatic assay (FRET substrate cleavage)
# Format: biochemical
# Settings: C-His6-tagged SARS-CoV-2 MPRO 25 nM, 30 min pre-incubation at RT, 60 min at 30° C., 10 doses from 25 μM; read-out: M pro IC50
row,Structure (SMILES),IC50 [nM]
1,"CC1(C)C[C@H](NC(=O)[C@@](C)(c2cncnc2)N(C(=O)[C@H](F)Cl)c2ccc(OC(F)(F)F)cc2)CCO1 (single isomer, unassigned) [Example 77a]",< 100
2,"C[C@](C(=O)NC1CCOC1)(c1cncnc1)N(C(=O)[C@H](F)Cl)c1ccc(OC(F)(F)F)cc1 (single isomer, unassigned) [Example 6b]",< 100
3,C[C@@](C(=O)Nc1ccc(Cl)cc1F)(c1cncnc1)N(C(=O)[C@H](F)Cl)c1ccc(OC(F)(F)F)cc1 [Example 110b],1000 to 10000
4,C[C@@](C(=O)NC1CCC(F)(F)CC1)(c1cncnc1)N(C(=O)[C@H](F)Cl)c1ccc(OC(F)(F)Cl)cc1 [Example 92b],100 to 1000
5,C[C@@](C(=O)NC1CCC(F)(F)CC1)(c1cncc(F)c1)N(C(=O)[C@H](F)Cl)c1ccc(SC(F)(F)F)cc1 [Example 95b],1000 to 10000
6,C[C@](C(=O)NC1CCOCC1)(c1cncnc1)N(C(=O)C(Cl)Cl)c1ccc(OC(F)(F)Cl)cc1 [Example 115a],< 100
7,CC1(C)COCC[C@H]1NC(=O)[C@@](C)(c1cncnc1)N(C(=O)[C@H](F)Cl)c1ccc(OC(F)(F)F)cc1 [Example 76a],< 100
8,C[C@](C(=O)NCCc1cccc(F)c1)(c1cncnc1)N(C(=O)[C@H](F)Cl)c1ccc(OC(F)(F)F)cc1 [Example 36a],< 100
9,C[C@](C(=O)NC1CCC(F)(F)CC1)(c1cccnc1)N(C(=O)[C@H](F)Cl)c1ccc(SC(F)(F)F)cc1 [Example 104a],< 100
10,C[C@](C(=O)NC1CCOCC1)(c1cncnc1)N(C(=O)[C@H](F)Cl)c1ccc(C2(C(F)(F)F)CC2)cc1 [Example 29a],100 to 1000
11,C[C@@](C(=O)NC1CCC(F)(F)CC1)(c1cncnc1)N(C(=O)[C@H](F)Cl)c1ccc(S(F)(F)(F)(F)F)cc1 [Example 22b],1000 to 10000
12,C[C@](C(=O)NC1CCC(F)(F)CC1)(c1cncnc1)N(C(=O)[C@H](F)Cl)c1ccc(OC(F)(F)F)cc1 [Example 4a],< 100
13,C[C@](C(=O)NC1CCC(F)(F)CC1)(c1cncnc1)N(C(=O)[C@H](F)Cl)c1ccc(-c2nccs2)cc1 [Example 100a],< 100
14,"C[C@](C(=O)NC1CCOC1)(c1cncnc1)N(C(=O)[C@H](F)Cl)c1ccc(OC(F)(F)F)cc1 (single isomer, unassigned) [Example 6a]",< 100
15,C[C@@](C(=O)NC1CCC(F)(F)CC1)(c1cccnc1)N(C(=O)[C@H](F)Cl)c1ccc(SC(F)(F)F)cc1 [Example 104b],1000 to 10000
16,C[C@](C(=O)NC1CCC(F)(F)CC1)(c1cncnc1)N(C(=O)[C@H](F)Cl)c1cccc(OC(F)(F)F)c1 [Example 112a],100 to 1000
17,C[C@](C(=O)NC1CC(F)(F)C1)(c1cncnc1)N(C(=O)[C@H](F)Cl)c1ccc(OC(F)(F)F)cc1 [Example 18a],< 100
18,[2H][C@](C(=O)NC1CCC(F)(F)CC1)(c1cncnc1)N(C(=O)[C@H](F)Cl)c1ccc(OC(F)(F)F)cc1 [Example 3a],< 100
19,C[C@@](C(=O)NC1CCOCC1)(c1cncnc1)N(C(=O)[C@H](F)Cl)c1ccc(C(F)(F)C(F)(F)F)cc1 [Example 108b],> 10000
20,C[C@](C(=O)NC1CCOCC1)(c1cncnc1)N(C(=O)[C@H](F)Cl)c1ccc(SC(F)(F)F)cc1 [Example 34a],< 100
21,CC1(C)C[C@@H](NC(=O)[C@@](C)(c2cncnc2)N(C(=O)[C@H](F)Cl)c2ccc(OC(F)(F)F)cc2)CCO1 [Example 77b],< 100
22,C[C@](C(=O)NC1CCC(F)(F)CC1)(c1cncc(F)c1)N(C(=O)[C@H](F)Cl)c1ccc(-c2nccs2)cc1 [Example 102a],< 100
23,C[C@@](C(=O)NC1CCC(F)(F)CC1)(c1cncnc1)N(C(=O)[C@H](F)Cl)c1ccc(-c2nccs2)cc1 [Example 100b],100 to 1000
24,C[C@](C(=O)Nc1ccc(Cl)cc1F)(c1cncnc1)N(C(=O)[C@H](F)Cl)c1ccc(OC(F)(F)F)cc1 [Example 110a],< 100

row,Structure (SMILES),IC50 [nM]
1,C[C@@](C(=O)NC1CCOCC1)(c1cncnc1)N(C(=O)[C@H](F)Cl)c1ccc(OC(F)(F)C(F)(F)F)cc1 [Example 32b],1000 to 10000
2,"C[C@@](C(=O)NC1CCOC1)(c1cncnc1)N(C(=O)[C@H](F)Cl)c1ccc(OC(F)(F)F)cc1 (single isomer, unassigned) [Example 6c]",1000 to 10000
3,C[C@](C(=O)NC1CCC(F)(F)CC1)(c1cncnc1)N(C(=O)[C@H](F)Cl)c1ccc2c(c1)OC(F)(F)O2 [Example 113a],< 100
4,C[C@](C(=O)NC1CCOCC1)(c1cncc(F)c1)N(C(=O)[C@H](F)Cl)c1ccc(-c2nccs2)cc1 [Example 103a],< 100
5,CC1(C)COCC[C@@H]1NC(=O)[C@@](C)(c1cncnc1)N(C(=O)[C@H](F)Cl)c1ccc(OC(F)(F)F)cc1 [Example 76b],100 to 1000
6,C[C@](C(=O)NC1CCC(F)(F)CC1)(c1cncnc1)N(C(=O)[C@H](F)Cl)c1ccc(-c2ccno2)cc1 [Example 2a],< 100
7,C[C@](C(=O)NC1CCOCC1)(c1cccnc1)N(C(=O)[C@H](F)Cl)c1ccc(SC(F)(F)F)cc1 [Example 105a],< 100
8,C[C@](C(=O)NC1CCOCC1)(c1cccnc1)N(C(=O)[C@H](F)Cl)c1ccc(OC(F)(F)Cl)cc1 [Example 111a],< 100
9,C[C@](C(=O)NC1CCC(F)(F)CC1)(c1cncnc1)N(C(=O)[C@H](F)Cl)c1ccc(S(F)(F)(F)(F)F)cc1 [Example 22a],< 100
10,C[C@@](C(=O)NC1CCC(F)(F)CC1)(c1cncnc1)N(C(=O)[C@H](F)Cl)c1cccc(OC(F)(F)F)c1 [Example 112b],> 10000
11,C[C@@](C(=O)NC1CCOCC1)(c1cncnc1)N(C(=O)[C@H](F)Cl)c1ccc(C2(C(F)(F)F)CC2)cc1 [Example 29b],> 10000
12,C[C@@](C(=O)NC1CCC(F)(F)CC1)(c1cncnc1)N(C(=O)[C@H](F)Cl)c1ccc(OC(F)(F)F)cc1 [Example 4b],1000 to 10000
13,C[C@@](C(=O)NC1CCOCC1)(c1cncnc1)N(C(=O)[C@H](F)Cl)c1ccc(OC(F)(F)F)cc1 [Example 5b],1000 to 10000
14,[2H][C@@](C(=O)NC1CCC(F)(F)CC1)(c1cncnc1)N(C(=O)[C@H](F)Cl)c1ccc(OC(F)(F)F)cc1 [Example 3b],> 10000
15,C[C@@](C(=O)NC1CCC(F)(F)CC1)(c1cncc(F)c1)N(C(=O)[C@H](F)Cl)c1ccc(OC(F)(F)Cl)cc1 [Example 99b],1000 to 10000
16,C[C@](C(=O)NC1CCC(F)(F)CC1)(c1cncnc1)N(C(=O)[C@H](F)Cl)c1ccc(OC(F)(F)Cl)cc1 [Example 92a],< 100
17,C[C@](C(=O)NC1CCOCC1)(c1cncnc1)N(C(=O)[C@H](F)Cl)c1ccc(S(F)(F)(F)(F)F)cc1 [Example 23a],1000 to 10000
18,C[C@@](C(=O)NC1CC(F)(F)C1)(c1cncnc1)N(C(=O)[C@H](F)Cl)c1ccc(OC(F)(F)F)cc1 [Example 18b],1000 to 10000
19,C[C@](C(=O)NC1CCOCC1)(c1cncnc1)N(C(=O)[C@H](F)Cl)c1ccc(-c2nccs2)cc1 [Example 101a],< 100
20,C[C@@](C(=O)NC1CCOCC1)(c1cncnc1)N(C(=O)[C@H](F)Cl)c1ccc(SC(F)(F)F)cc1 [Example 34b],> 10000
21,C[C@@](C(=O)NC1CCOCC1)(c1cncc(F)c1)N(C(=O)[C@H](F)Cl)c1ccc(OC(F)(F)Cl)cc1 [Example 98b],1000 to 10000
22,C[C@@](C(=O)NC1CCOCC1)(c1cccnc1)N(C(=O)[C@H](F)Cl)c1ccc(OC(F)(F)Cl)cc1 [Example 111b],> 10000
23,C[C@@](C(=O)NC1CCOCC1)(c1cccnc1)N(C(=O)[C@H](F)Cl)c1ccc(SC(F)(F)F)cc1 [Example 105b],> 10000
24,Cn1ccc([C@](C)(C(=O)NC2CCC(F)(F)CC2)N(C(=O)[C@H](F)Cl)c2ccc(OC(F)(F)F)cc2)cc1=O [Example 13a],> 10000

# Same assay, conditions: M pro IC50, C-His6-tagged SARS-CoV-2 MPRO 25 nM, 30 min pre-incubation at RT, 60 min at 30° C., 10 doses from 25 μM
row,Structure (SMILES),IC50 [nM]
1,"C[C@@](C(=O)NC1CCC2(CC1)COC2)(c1cncnc1)N(C(=O)[C@H](F)Cl)c1ccc(OC(F)(F)F)cc1 (single isomer, unassigned) [Example 107b]",> 10000
2,"CC1(C)C[C@@H](NC(=O)[C@](C)(c2cncnc2)N(C(=O)[C@H](F)Cl)c2ccc(OC(F)(F)F)cc2)CCO1 (single isomer, unassigned) [Example 77d]",> 10000
3,"CC1(C)COCC[C@H]1NC(=O)[C@](C)(c1cncnc1)N(C(=O)[C@H](F)Cl)c1ccc(OC(F)(F)F)cc1 (single isomer, unassigned) [Example 76c]",> 10000
4,C[C@](C(=O)N[C@@H]1CC[C@H](NC(=O)C(F)(F)F)C1)(c1cncc(F)c1)N(C(=O)[C@H](F)Cl)c1ccc(OC(F)(F)F)cc1 [Example 109a],< 100
5,C[C@](C(=O)NC1CCC(F)(F)CC1)(c1cncc(F)c1)N(C(=O)[C@H](F)Cl)c1ccc(OC(F)(F)F)cc1 [Example 11a],< 100
6,"CC1(C)C[C@H](NC(=O)[C@](C)(c2cncnc2)N(C(=O)[C@H](F)Cl)c2ccc(OC(F)(F)F)cc2)CCO1 (single isomer, unassigned) [Example 77c]",1000 to 10000
7,"Cn1ccc([C@@](C)(C(=O)NC2CCC(F)(F)CC2)N(C(=O)[C@H](F)Cl)c2ccc(OC(F)(F)F)cc2)cc1=O (single isomer, unassigned) [Example 13b]",> 10000
8,C[C@@](C(=O)NC1CCC(F)(F)CC1)(c1cncnc1)N(C(=O)[C@H](F)Cl)c1ccc(OC(F)(F)F)cc1F [Example 26b],1000 to 10000
9,C[C@@](C(=O)N[C@@H]1CC[C@H](NC(=O)C(F)(F)F)C1)(c1cncc(F)c1)N(C(=O)[C@H](F)Cl)c1ccc(OC(F)(F)F)cc1 [Example 109b],1000 to 10000
10,C[C@](C(=O)NC1CCC(F)(F)CC1)(c1cncnc1)N(C(=O)[C@H](F)Cl)c1ccc(OC(F)(F)F)cc1F [Example 26a],100 to 1000
11,CC(C(=O)N[C@H]1CC[C@H](OC(F)(F)F)CC1)(c1cncnc1)N(C(=O)[C@H](F)Cl)c1ccc(OC(F)(F)F)cc1 (stereo in doubt) [Example 8],< 100
12,C[C@](C(=O)NC1CCOCC1)(c1cncnc1)N(C(=O)[C@H](F)Cl)c1ccc(OC(F)(F)F)cc1F [Example 27a],100 to 1000
